Patent publication US20100305023A1, “Method of Delaying The Onset of Clinically Definite Multiple Sclerosis” (Teva Pharmaceutical Industries, Ltd., priority 2007, published 2010)
Where two headings read alike, the source gives them in different places.

Experiments:
[1] = test system: patients presenting a clinically isolated syndrome (CIS)
Experimental: A clinical trial was undertaken to assess, within the time frame of the up to 3-years placebo-controlled study period, the effect of GA on clinical and MRI parameters.
Subjects received their first dose of study medication at the baseline visit. 20 mg GA formulation was injected once daily by subcutaneous route via pre-filled syringe manufactured by Teva Pharmaceutical Industries Ltd., Israel. The duration of the double-blind phase is 36 months (3 years) or until subject's conversion to CDMS, whichever comes first.

[2] = test system: patients presenting a clinically isolated syndrome (CIS); conditions: early treatment vs delayed start of treatment with GA
Experimental: A clinical trial was undertaken to assess, within the time frame of 5 years, the neuroprotective effect of early versus delayed treatment with GA as reflected by clinical and MRI parameters measuring the accumulated irreversible brain tissue damage.
Subjects are evaluated at study centers at baseline, at months 1, 3, and every 3 months thereafter. MRI evaluations of T1 and T2 variables are assessed at screening, baseline, at 3 months, and every 3 months thereafter until conversion to CDMS or up to 3 years. An additional MRI assessment is performed upon conversion to CDMS only if no MRI is performed within the previous month. MRI is then performed at the next scheduled visit and every 6 months thereafter.
Brain atrophy, as measured by the change in brain volume according to the Structural Image Evaluation of Normalized Atrophy (SIENA) technique is assessed at baseline, every 12 months and at conversion to CDMS.
The volume of black holes is assessed at baseline and at every 6 months.
The count of new T1-weighted hypointense lesions is assessed every 6 months.
Exploratory endpoints are defined to assess the neuroprotective effect as reflected by clinical and MRI parameters comparing the group originally assigned to GA treatment with that randomized to receive placebo treatment (delayed start of treatment with GA). The 5-year data cohort will be used for inference. […]

patients with RRMS = conditions: cited from earlier work
[3] = test system: patients presenting a clinically isolated syndrome (CIS); remark: listed apart in the source
Experimental: Subgroup analyses related to the primary efficacy variable were performed with respect to demographics and CIS characteristics at initial attack onset (gender, age, and type of unifocal manifestation and steroid treatment for the initial attack), and MRI findings (disease dissemination/activity) at study baseline.
No correction for multiplicity was done for any of the following post-hoc analyses. • 1. Subgroup analysis of the primary endpoint for: gender, age, type of unifocal manifestation and corticosteroid use for the initial attack employed the Cox proportional hazards model, as for the principal analysis. Subgroup analyses of proportion of subjects converted to CDMS according to MRI activity at baseline was analyzed using Logistic Regression, as in the fourth secondary endpoint. • 2. Number of relapses: analysis of number of relapses during the placebocontrolled phase, during the entire study and on a yearly basis was performed using the Poisson regression. • 3. Time to confirmed Expanded Disability Status Scale (EDSS) progression: Progression of disability was defined as worsening of at least 1 point in EDSS sustained over 2 consecutive measurements which are at least 6 months apart. Analysis of time to confirmed EDSS progression was performed employing the Cox proportional hazards model.
Subgroups were created for demographics and CIS characteristics at onset (gender, age, and type of unifocal presentation and steroid treatment for the initial attack), and MRI findings (disease dissemination/activity) at study baseline.

[4] = test system: patients presenting a clinically isolated syndrome (CIS); remark: listed apart in the source
Experimental: A clinical trial was undertaken to assess the effect of treatment with GA compared to placebo on the time to conversion to CDMS, as determined by Poser (the occurrence of the second clinical attack) during the double-blind phase.
Subjects receive their first dose of study medication at the baseline visit. 20 mg GA formulation is injected once daily by subcutaneous route via pre-filled syringe manufactured by Teva Pharmaceutical Industries Ltd., Israel. Subjects are evaluated at study centers at baseline, at months 1, 3, and every 3 months thereafter.
The duration of the double-blind phase is 36 months (3 years) or until subject's conversion to CDMS, whichever comes first. Conversion to CDMS is counted when the subject's symptoms are accompanied by observed objective neurological changes, consistent with: • a) an increase of at least 0.5 in the EDSS score or one grade in the score of two or more of the seven Functional Systems (FS); or • b) two grades in the score of one of FS as compared to the previous evaluation.
The subject must not be undergoing any acute metabolic changes such as fever or other medical abnormality. A change in bowel/bladder function or in cognitive function must not be entirely responsible for the changes in EDSS or FS scores.

[5] = test system: subjects with clinically isolated syndrome (CIS) suggestive of MS; conditions: MRS, NAA/Cr over time
Experimental: Single voxel magnetic resonance spectroscopy (MRS) exams were performed at baseline and once a year subsequently. Scans were quantified locally and sent to the MRS Unit (Montreal) where they were deemed acceptable or in need of repeat (either acquisition or analysis). The MRS endpoint is the change in the ratio of N-acetylaspartate/creatine (NAA/Cr) ratio over time. NAA is seen only in neuronal tissue and is a marker of neuronal integrity; reducing with most types of insults to the brain. Cr is often used as an internal reference because it is relatively stable.
MRS scans were performed after T2-weighted fast-spin-time echo (FSE/TSE) scans and before gadolinium injection. MRS data was obtained from a region of central white matter using a 90-180-180 (PRESS) volume selective sequence to excite a volume of 100 mm×100 mm×20 mm (range 80-100 mm×80-100 mm×20 mm) centered on the body of the corpus callosum using a long echo time (TR 2000, TE 272). The rotation of the acquisition region was the same as for the main image series. […] The region was centered left-right so that the brain mid-line passes centrally through the region. The region was positioned anterior-posterior so that the anterior corners and posterior corners are equidistant from the skull.

[6] = 20 mg once daily s.c. vs placebo

L-glutamic acid polymer with L-alanine, L-lysine, L-tyrosine, acetate (salt) [glatiramer acetate]
patients who developed CDMS at the end of the two-year study ([1]; 20 mg once daily s.c., placebo 43 percent): 25% | probability of development of CDMS over 3 years (Kaplan-Meier estimates) ([1]; 20 mg once daily s.c., placebo 65%): 36.4% | treatment effect in decreasing the rate of new T2 lesions at LOV ([1]; 20 mg vs placebo, last observed value): 58% | reduction of new T1 Gd-enhancing lesions in comparison to placebo, annual comparison ([1]; 12 months): > 4.8 fold | reduction of new T2 lesions in comparison to placebo, annual comparison ([1]; 12 months): 6 fold | reduction of new T2 lesions in comparison to placebo, annual comparison ([1]; 24 months): 4 fold | reduction of new lesions in comparison to placebo, annual comparison of T1 Gd-enhancing lesions ([1]; 24 months): approximately 3.8 fold | Number of new T2 lesions at LOV, max ([1]; GA 20 mg): 15 | Number of new T2 lesions at LOV, median ([1]; GA 20 mg): 0 | Number of new T2 lesions at LOV, min ([1]; GA 20 mg): 0 | Number of new T2 lesions at LOV, mean ([1]; GA 20 mg, placebo 1.8): 0.7 | reduction of new T1 Gd-enhancing lesions in comparison to placebo, annual comparison ([1]; ITT cohort, 12 months): > 4.5 fold | reduction of new T2 lesions in comparison to placebo, annual comparison ([1]; ITT cohort, 12 months): > 3 fold | reduction of new T2 lesions in comparison to placebo, annual comparison ([1]; ITT cohort, 24 months): approximately 4 fold | reduction of new lesions in comparison to placebo, annual comparison of T1 Gd-enhancing lesions ([1]; ITT cohort, 24 months): approximately 3 fold | reduction of the cumulative number of new T1 Gd-enhancing lesions at LOV compared to placebo ([1]; last observed value): 619 | cumulative number of new T1 Gd-enhancing lesions at LOV ([1]; placebo 1.19): 0.46 | 5-year relapse rate [2]: decreased | level of disability (EDSS Score) [2]: reduced | proportion of patients who convert to CDMS during the 5-year treatment period [2]: decreased | time from randomization to conversion to CDMS during the 5-year period [2]: increased | total number of enhancing lesions as measured by MRI (patients with RRMS; 20 and 40 mg/day subcutaneous, MS patients): reduce | efficacy in reducing the frequency of relapses (patients with RRMS; patients with RRMS): well established | Risk Reduction with Copaxone over Placebo ([3]; Age <30 years, listed as Copaxone ®): 53% | Risk Reduction with Copaxone over Placebo ([3]; Age <30 years, listed as Copaxone®): 53% | % CDMS in the placebo-controlled phase ([3]; Age >=30 years): 15% | % CDMS in the placebo-controlled phase ([3]; Corticosteroids use for initial attack: No): 9% | Risk Reduction with Copaxone over Placebo ([3]; Corticosteroids use for initial attack: No, listed as Copaxone ®): 54% | Risk Reduction with Copaxone over Placebo ([3]; Corticosteroids use for initial attack: No, listed as Copaxone®): 54% | % CDMS in the placebo-controlled phase ([3]; Corticosteroids use for initial attack: Yes): 16% | % CDMS in the placebo-controlled phase ([3]; Sex: Female): 14% | Risk Reduction with Copaxone over Placebo ([3]; Sex: Female, listed as Copaxone ®): 48% | Risk Reduction with Copaxone over Placebo ([3]; Sex: Female, listed as Copaxone®): 48% | % CDMS in the placebo-controlled phase ([3]; Sex: Male): 11% | Risk Reduction with Copaxone over Placebo ([3]; Sex: Male, listed as Copaxone ®): 43% | Risk Reduction with Copaxone over Placebo ([3]; Sex: Male, listed as Copaxone®): 43% | % CDMS in the placebo-controlled phase ([3]; T1 Gd-enhancing lesions at baseline: T1 = 0 lesions): 14% | Risk Reduction with Copaxone over Placebo ([3]; T1 Gd-enhancing lesions at baseline: T1 = 0 lesions, listed as Copaxone ®): 44% | Risk Reduction with Copaxone over Placebo ([3]; T1 Gd-enhancing lesions at baseline: T1 = 0 lesions, listed as Copaxone®): 44% | % CDMS in the placebo-controlled phase ([3]; T1 Gd-enhancing lesions at baseline: T1 >= 1 lesions): 11% | Risk Reduction with Copaxone over Placebo ([3]; T1 Gd-enhancing lesions at baseline: T1 >= 1 lesions, listed as Copaxone ®): 71% | Risk Reduction with Copaxone over Placebo ([3]; T1 Gd-enhancing lesions at baseline: T1 >= 1 lesions, listed as Copaxone®): 71% | % CDMS in the placebo-controlled phase ([3]; T2 lesions at baseline: 2-8 lesions): 3% | Risk Reduction with Copaxone over Placebo ([3]; T2 lesions at baseline: 2-8 lesions, listed as Copaxone ®): 67% | Risk Reduction with Copaxone over Placebo ([3]; T2 lesions at baseline: 2-8 lesions, listed as Copaxone®): 67% | % CDMS in the placebo-controlled phase ([3]; T2 lesions at baseline: >=9 lesions): 22% | Risk Reduction with Copaxone over Placebo ([3]; T2 lesions at baseline: >=9 lesions, listed as Copaxone ®): 58% | Risk Reduction with Copaxone over Placebo ([3]; T2 lesions at baseline: >=9 lesions, listed as Copaxone®): 58% | % CDMS in the placebo-controlled phase ([3]; Unifocal manifestation: Optic): 6% | Risk Reduction with Copaxone over Placebo ([3]; Unifocal manifestation: Optic, listed as Copaxone ®): 66% | Risk Reduction with Copaxone over Placebo ([3]; Unifocal manifestation: Optic, listed as Copaxone®): 66% | % CDMS in the placebo-controlled phase ([3]; Unifocal manifestation: Spinal): 7% | Risk Reduction with Copaxone over Placebo ([3]; Unifocal manifestation: Spinal): 17% | prolongation of the quartile time to CDMS [4, 6]: 115% | reduction of the risk in developing clinically definite MS (CDMS) [4, 6]: 44% | Kaplan-Meier time to conversion to CDMS, 25% percentile ([4]; 20 mg once daily s.c., ITT, placebo 336 days): 722 days | axonal damage [5]: reduces
